Reference: PubChem BioAssay (NCI)
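Where inhibition never reached the appropriate level, the endpoint shown equals the highest concentration tested. Otherwise, values were interpolated linearly from a five-concentration, 48-hour dose response in 96-well plates. At the TGI there is no net growth.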

Experiments:
Assay in all cases: inhibition of tumour cell growth, NCI panel, 48 h
[1] = system: HCT-116 colon
[2] = system: LOX IMVI melanoma
[3] = system: M14 melanoma
[4] = system: NCI-H226 lung
[5] = system: OVCAR-4 ovarian
[6] = system: RXF 393 renal
[7] = system: SF-268 CNS
[8] = system: SK-MEL-28 melanoma
[9] = system: SNB-19 CNS
[10] = system: TK-10 renal

SMILES | TGI [1] | TGI [2] | TGI [3] | TGI [4] | TGI [5] | TGI [6] | TGI [7] | TGI [8] | TGI [9] | TGI [10]
CCC/C(Cl)=N\OC(=O)Nc1ccc(OC(F)(F)F)cc1 | > 51.6 µM | 8.78 µM | 18.5 µM | 34.5 µM | 39.8 µM | 31.2 µM | > 84.7 µM | 41.9 µM | > 58.7 µM | 12.4 µM
Nc1ccc(C(=O)N2CCC[C@H]2CO)c(N)c1 | > 100 µM | > 100 µM | > 100 µM | > 100 µM | > 100 µM | > 100 µM | > 100 µM | > 100 µM | > 100 µM | > 100 µM
O=C1c2cccnc2-c2nccc3c2c1nc1cc(Br)ccc13 | 0.0762 µM | 0.205 µM | 0.163 µM | 0.855 µM | 0.563 µM | 0.355 µM | 0.555 µM | 0.325 µM | 0.88 µM | 2.33 µM
C=CCOc1ccc(C2C(C(=O)OCC)C(=O)CC(C)(O)C2C(=O)OCC)cc1OC (stereo not given) | > 100 µM | > 100 µM | > 100 µM | > 100 µM | > 100 µM | > 100 µM | > 100 µM | > 100 µM | > 100 µM | > 100 µM
CC(C)NC(=O)OCCN=c1c2ccccc2ccc2ccccc12 | > 100 µM | > 100 µM | > 100 µM | > 100 µM | > 100 µM | > 100 µM | > 100 µM | > 100 µM | > 100 µM | > 100 µM
On1c(-c2ccccc2)nc2ccccc2c1=S | > 100 µM | > 100 µM | > 100 µM | > 100 µM | > 100 µM | > 100 µM | > 100 µM | > 100 µM | > 100 µM | > 100 µM
O=C1O[C@H](c2ccc3c(c2)OCO3)[C@H]2CO[C@@H](c3ccc4c(c3)OCO4)[C@@H]12 | > 100 µM | > 100 µM | > 100 µM | > 100 µM | > 100 µM | > 100 µM | > 100 µM | > 100 µM | > 100 µM | > 100 µM
CC12CCC(O)CC1CCC1C2CCC2(C)C(C(=O)CC(O)C(F)(F)F)CCC12 (stereo not given) | > 100 µM | > 100 µM | > 100 µM | > 100 µM | > 100 µM | 29.3 µM | > 100 µM | > 100 µM | 69.6 µM | > 100 µM
CC(=O)O[C@H]1CC[C@@]2(C)C(=CC[C@H]3[C@@H]4C[C@H](N5CCOCC5)[C@H](OC(C)=O)[C@@]4(C)CC[C@@H]32)C1 | > 100 µM | > 100 µM | > 100 µM | > 100 µM | > 100 µM | > 100 µM | > 100 µM | > 100 µM | > 100 µM | > 100 µM
C[N+]12CCCCC1C(CN1C(=O)Cc3c4ccccc4c(c4ccccc34)CC1=O)CCC2 (stereo not given) | > 100 µM | > 100 µM | > 100 µM | > 100 µM | > 100 µM | > 100 µM | > 100 µM | > 100 µM | > 100 µM | > 100 µM
CC(=O)NC1c2ccccc2C(C)(C)C12CCC1(CC2)OCCO1 (stereo not given) | > 100 µM | > 100 µM | > 100 µM | > 100 µM | > 100 µM | > 100 µM | > 100 µM | > 100 µM | > 100 µM | > 100 µM
CCC1(C)C=Cc2c(cc(O)c3c(=O)c4ccccc4n(C)c23)O1 (stereo not given) | > 10 µM | > 10 µM | > 10 µM | > 10 µM | > 10 µM | > 10 µM | > 10 µM | > 10 µM | > 10 µM | > 10 µM
CC(=O)[C@@]1(O)CC[C@H]2[C@@H]3C[C@H](C)C4=CC(=O)C=C[C@]4(C)[C@@]3(F)[C@@H](O)C[C@@]21C | > 100 µM | > 100 µM | > 100 µM | > 100 µM | > 100 µM | > 100 µM | > 100 µM | > 100 µM | > 100 µM | > 100 µM
CSc1ncnc2c1ncn2CCC#N | > 100 µM | > 100 µM | > 100 µM | > 100 µM | > 100 µM | > 100 µM | > 100 µM | > 100 µM | > 100 µM | > 100 µM
O=[N+]([O-])/C(C(Cl)=C(Cl)Cl)=C(\N1CCCCC1)n1cncn1 | 73.6 µM | 42.1 µM | 33.7 µM | 40.3 µM | 36.7 µM | 24.2 µM | 26.9 µM | 37.5 µM | 33.6 µM | 33.2 µM
CN1COCc2c1ccc1cc3ccc4c(c3nc21)COCN4S(C)(=O)=O | > 100 µM | > 100 µM | > 100 µM | > 100 µM | > 100 µM | > 100 µM | > 100 µM | > 100 µM | > 100 µM | > 100 µM
Cc1nc2sc3ccccc3n2c(=O)c1N=Nc1ccc(Cl)cc1 | > 100 µM | > 100 µM | > 100 µM | > 100 µM | > 100 µM | > 100 µM | > 100 µM | > 100 µM | > 100 µM | > 100 µM
O=c1oc2ccc([N+](=O)[O-])cc2c(Nc2ccc3c(c2)Oc2ccccc2O3)c1[N+](=O)[O-] | > 100 µM | 94 µM | > 100 µM | 87.1 µM | > 100 µM | > 100 µM | > 100 µM | > 100 µM | > 100 µM | > 100 µM
